Assay results as given in patent publication US5154929A, “Percutaneous absorption type preparation and process for preparing the same” (Nitto Denko Corporation, priority 1988, dated 1992).

Experiment: Saturated solubility of the drug in the pressure-sensitive adhesive

| SMILES | Saturated Solubility (in adhesive of Comparative Example 3 (nonylacrylate 75, ethoxyethylacrylate 15, vinyl acetate 10)) [%] | Saturated Solubility (in adhesive of Comparative Example 4 (nonylacrylate 60, ethoxyethylacrylate 20, vinyl acetate 20)) [%] | Saturated Solubility (in adhesive of Example 3 (nonylacrylate 75, ethoxyethylacrylate 15, vinyl acetate 10)) [%] | Saturated Solubility (in adhesive of Comparative Example 5 (2-ethylhexylacrylate 85, N-vinyl-2-pyrrolidone 15)) [%] | Saturated Solubility (in adhesive of Comparative Example 6 (2-ethylhexylacrylate 75, N-vinyl-2-pyrrolidone 25)) [%] | Saturated Solubility (in adhesive of Example 4 (2-ethylhexylacrylate 85, N-vinyl-2-pyrrolidone 15)) [%] |
| --- | --- | --- | --- | --- | --- | --- |
| CN1C(=O)CN=C(c2ccccc2F)c2cc([N+](=O)[O-])ccc21 [Flunitrazepam] | 3.5 | 4 | 3.5 | – | – | – |
| CC(C)NCC(O)COc1cccc2[nH]ccc12 (stereo not drawn) [Pindolol] | – | – | – | 7 | 6 | 7 |
